Columns and labels:
Type in all cases: ADME, organism-based
[1] = Volume of distribution at steady state in Sprague-Dawley rat at 1 mg/kg, iv; design: dose 1 mg/kg, route intravenous; conditions: in vivo, read-out: Vdss
[2] = Cmax in Sprague-Dawley rat at 2 mg/kg, po; design: dose 2 mg/kg, route oral; conditions: in vivo
[3] = Oral bioavailability in Sprague-Dawley rat at 2 mg/kg; conditions: in vivo
[4] = AUC in Sprague-Dawley rat at 2 mg/kg, po; design: dose 2 mg/kg, route oral; conditions: plasma

With `COc1ccc2c(c1)CC(c1nc3ccc(-c4cn[nH]c4)cc3c(=O)[nH]1)CO2` (centres undefined) as the compound, how does the Vd [1] read?
Its Vd is 0.27 L/kg.

What about the Cmax [2] of the same compound?
The Cmax was 8000 nM.

What about the bioavailability [3] of the same compound?
The bioavailability was 66%.

What about the AUC [4] of the same compound?
Its AUC is 43.4 µM·h.

For `COc1ccc2c(c1)C[C@H](c1nc3ccc(-c4cn[nH]c4)cc3c(=O)[nH]1)CO2`, which Vd [1] is on record?
Its Vd is 0.14 L/kg.

What about the Cmax [2] of the same compound?
Its Cmax is 2850 nM.

What about the bioavailability [3] of the same compound?
Its bioavailability is 46%.

And the AUC [4]?
The AUC was 63.2 µM·h.

With `COc1ccc2c(c1)C[C@@H](c1nc3ccc(-c4cn[nH]c4)cc3c(=O)[nH]1)CO2` as the compound, how does the Vd [1] read?
Its Vd is 0.49 L/kg.

What about the Cmax [2] of the same compound?
The Cmax was 580 nM.

And the bioavailability [3]?
The bioavailability was 13%.

And the AUC [4]?
The AUC was 2.36 µM·h.

Which Vd [1] does the source give for `COc1ccc2c(c1)CC(c1nc3c(OC)cc(-c4cn[nH]c4)cc3c(=O)[nH]1)CO2` (centres undefined) here?
Its Vd is 0.1 L/kg.

And the Cmax [2]?
The Cmax was 4600 nM.

What about the bioavailability [3] of the same compound?
Its bioavailability is 26%.

What about the AUC [4] of the same compound?
The AUC was 87.9 µM·h.

Which results are given for `COc1ccc2c(c1)CC(c1nc3c(OCCN(C)C)cc(-c4cn[nH]c4)cc3c(=O)[nH]1)CO2` (centres undefined)?
Vd [1]: 1.3 L/kg; Cmax [2]: 50 nM; bioavailability [3]: 3%; AUC [4]: 0.15 µM·h

For `COc1cccc(OCc2nc3c(OC)cc(-c4cn[nH]c4)cc3c(=O)[nH]2)c1`, which Vd [1] is on record?
The Vd was 0.22 L/kg.

What about the Cmax [2] of the same compound?
The Cmax was 660 nM.

And the bioavailability [3]?
Its bioavailability is 15%.

And the AUC [4]?
Its AUC is 9.63 µM·h.

From ChEMBL document CHEMBL1681768, “Synthesis and biological evaluation of 4-quinazolinones as Rho kinase inhibitors” (Bioorg Med Chem Lett, 2011)
